In patent US10912815B2, “Inhibitors of mitochondrial fission and methods of use thereof” (The Board of Trustees of the Leland Stanford Junior …, priority 2011, dated 2021):
No end group written: not given here.

Experiments:
[1] = test system: mitochondrial electron transport chain (complexes I-V); test: Mitochondrial complex I-V assembly in SH-SY5Y cells (western blot); assay type: cell-based, human; details: SH-SY5Y treated with MPP+, FIG. 8
Method: The oxidative phosphorylation system in the mitochondria is responsible for generating ATP and consists of five major membrane protein complexes, the mitochondrial complexes I-V. MPP+ is a specific mitochondrial complex I inhibitor. P110 was tested for potential effects on MPP+-induced defects in mitochondrial complexes. […] The lower panel is a histogram in which the quantitative data generated from the western blot are expressed as mean±S.E. of 3 independent experiments.

[2] = test system: isolated mouse liver mitochondria with Drp1 recombinant protein; test: Membrane potential of isolated mouse liver mitochondria incubated with Drp1 (TMRM); assay type: biochemical; details: P110 1 μM, NAC 2.5 mM, FIG. 6D bottom
Method: Mitochondrial membrane potential was also determined using TMRM (tetramethylrhodamine methylester). Fifty μg of mitochondria were incubated with recombinant Drp1 (50 ng) followed by incubation with TMRM (0.5 μM) in the presence or absence of P110 (1 μM) or NAC (2.5 mM). Fluoresence detection was performed using black 96-well plates in a fluorescence microplate reader at 560 nm excitation and 690 nm emission and potential was assessed by quenching of the fluorescent signal. The data are presented as mean±S.E. of percentage relative to control mitochondria from three independent experiments (FIG. 6B, #, p<0.05 vs. control cells; *, p<0.05; **, P<0.01 vs. MPP+- or CCCP-treated cells). Isolated mouse liver mitochondria (50 μg) were incubated with Drp1 recombinant protein (50 ng) in the presence or absence of P110 (1 μM). A kinetic change of mitochondrial superoxide production was determined by using MITOSOX™ (red mitochondrial superoxide indicator). The data are presented as mean±S.E. of percentage relative to the value at basal level from three independent experiments (FIG. 6C, #, p<0.05 vs. control mitochondria; *, p<0.05 vs. mitochondria with the addition of Drp1). Mitochondrial membrane potential of isolated mouse liver mitochondria was determined by TMRM, as described above, in the indicated groups. NAC (2.5 mM) was used as a positive control (FIG. 6D). Protein levels of cytochrome c in the mitochondria were determined by western blot analysis with anti-cytochrome c antibodies in the indicated groups (insert, FIG. 6D). Total ROS production was determined by staining SH-SY5Y cells with CM2HDCFA (1 μM […] at 37° C.) in the indicated groups. The data are presented as mean±S.E. of percentage relative to control group from three independent experiments (FIG. 6E, *, p<0.05 vs. either MPP+ or CCCP treated-group; #, p<0.05 vs. control group).
The mitochondrial membrane potential of isolated mouse liver mitochondria was then measured in the presence or absence of P110.

RRRQRRKKRGYGGDLLPRGS (RRRQRRKKRGYGGDLLPRGS-NH2) [P110, TAT47-57 carrier, GG linker, Drp1 region 110 (GTPase domain) peptide DLLPRGS; C-terminus C(O)-NH2]
MPP+-induced reduction of NDUFB8 (complex I) and MTCOI (complex IV) [1]: abolished the reduction of these two proteins
assembly of the mitochondrial electron transport chain (ETC) [1]: improved the assembly
mitochondrial membrane potential (MMP) of isolated mitochondria after Drp1 addition [2]: improved the MMP
